Assay results reported in patent US9822115B2, “Nitrogen containing compounds and their use as antibacterial agents” (WOCKHARDT LIMITED, priority 2014, dated 2017).
≈ marks a conversion by molar mass, not a printed value. Like-named read-outs stand apart in the source and are kept apart here.

Experiments:
E. coli M 49 = assay: Antibacterial activity, MIC by agar dilution (CLSI); assay type: cell-based; conditions: Escherichia coli, M49, Table 3
Method: (§1) The biological activity of representative compounds according to the invention against various bacterial strains was investigated. In a typical study, overnight grown bacterial cultures were diluted appropriately and inoculated on the agar media containing doubling dilutions of the test compounds. Observations for growth or no growth was performed after 16-20 hours of incubation at 35±2° C. in the ambient air. The overall procedure was performed as per Clinical and Laboratory Standards Institute (CLSI) recommendations, (Clinical and Laboratory Standards Institute (CLSI), Performance Standards for Antimicrobial Susceptibility Testing, 20th Informational Supplement, M07-A9, Volume 32, No. 2, 2012). Molten Mueller Hinton Agar (BD, USA) containing serial dilutions of each antibacterial agent were poured on to the plates and allowed to solidify. Appropriate suspensions from the freshly grown cultures were prepared in normal saline so that about 10^4 CFU/spot of the organism was delivered on to the drug containing agar plates using automated multipoint inoculator (Mast, UK). The plates were incubated in Biochemical oxygen demand (BOD) incubator at 37° C. for 18 hours and then examined for growth.
(§2) Table 3 details the antibacterial activity of representative compound of Formula (I), Sodium salt of (2S,5R)-Sulfuric acid mono-[2-(N′-(4-hydroxyphenyl-acetyl)-hydrazinocarbonyl)-7-oxo-1,6-diaza-bicyclo[3.2.1]oct-6-yl]ester (Compound of Example 1) and Sodium salt of (2S,5R)-Sulfuric acid mono-[2-(N′-(pyridine-2-yl-acetyl)-hydrazinocarbonyl)-7-oxo-1,6-diaza-bicyclo[3.2.1]oct-6-yl] ester (Compound of Example 8), against various Multi Drug Resistant (MDR) Gram-negative bacterial strains.

E. coli 7 MP = assay: as above; assay type: cell-based; conditions: Escherichia coli, Table 3
Method: as §1, §2

C. frundaii 58 MP = assay: as above; assay type: cell-based; conditions: Table 3
Method: as §1, §2

P. aeruginosa ATCC 27853 = assay: as above; assay type: cell-based; conditions: Pseudomonas aeruginosa, ATCC27853, Table 3
Method: as §1, §2

K. pneumoniae B 88 = assay: as above; assay type: cell-based; conditions: Klebsiella pneumoniae, B88, Table 3
Method: as §1, §2

P. aeruginosa R 20 = assay: as above; assay type: cell-based; conditions: Pseudomonas aeruginosa, R20, Table 3
Method: as §1, §2

E. coli NCTC 13351 = assay: as above; assay type: cell-based; conditions: Escherichia coli, NCTC13351, Table 3
Method: as §1, §2

K. pneumoniae S 21 = assay: as above; assay type: cell-based; conditions: Klebsiella pneumoniae, S21, Table 3
Method: as §1, §2

P. aeruginosa 2779 = assay: as above; assay type: cell-based; conditions: Pseudomonas aeruginosa, Table 3
Method: as §1, §2

P. aeruginosa PAO1 = assay: as above; assay type: cell-based; conditions: Pseudomonas aeruginosa, Table 3
Method: as §1, §2

K. pneumoniae H 525 = assay: as above; assay type: cell-based; conditions: Klebsiella pneumoniae, H525, Table 3
Method: as §1, §2

E. cloacae M 20 = assay: as above; assay type: cell-based; conditions: Enterobacter cloacae, M20, Table 3
Method: as §1, §2

E. coli NCTC 13352 = assay: as above; assay type: cell-based; conditions: Escherichia coli, NCTC13352, Table 3
Method: as §1, §2

E. coli M 50 = assay: as above; assay type: cell-based; conditions: Escherichia coli, M50, Table 3
Method: as §1, §2

[1] = test system: K. pneumoniae H521 (KPC, SHV, TEM); assay: as above; assay type: cell-based; conditions: Klebsiella pneumoniae, read-out: MIC
How it was run: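 Agar dilution per CLSI on Mueller Hinton agar with doubling compound dilutions, about 10^4 CFU/spot by multipoint inoculator. Plates incubated 16-20 h at 35±2° C in ambient air; procedure also gives 37° C for 18 h. MIC (mcg/ml) scored as growth or no growth.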

[2] = target: T1, Class A beta-lactamase, K. pneumoniae ATCC 700603 (SHV 18) (Klebsiella pneumoniae, UniProt P0AD64, E235K/G234A/R39S); assay: biochemical
T1 construct: preincubated mixture of crude enzyme and the agents; endogenous in cells; host or cells: K. pneumoniae ATCC 700603
How it was run: (§3)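 Crude enzyme preincubated with inhibitor 10 min at 37 °C, then nitrocefin (100 uM) added for 5 min. Absorbance read at 485 nm; IC50 obtained from sigmoidal dose-response fit of absorbance versus concentration.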

[3] = target: T2, Class D beta-lactamase, A. baumannii NCTC 13301 (OXA 23) (Acinetobacter baumannii, UniProt Q9L4P2); assay: Beta-lactamase enzyme inhibition (nitrocefin, crude enzyme); assay type: biochemical; conditions: Class D A. baumannii NCTC 13301 (OXA 23); read-out: Beta-lactamase enzyme inhibition IC50
T2 construct: preincubated mixture of crude enzyme and the agents; endogenous in cells; host or cells: A. baumannii NCTC 13301
How it was run: as §3

E. coli M50 = assay: Zone of inhibition, compound alone and in combination with ceftazidime (agar well); assay type: cell-based; conditions: Escherichia coli, M50, E. coli M50, read-out: Diameter of Zone of Inhibition; for zone of inhibition at 0.25 µg/disc: 0.25 μg/well; for zone of inhibition at 0.5 µg/disc: 0.5 μg/well; for zone of inhibition at 1 µg/disc: 1 μg/well
Method: (§4) Determination of antibacterial activity of combinations according to invention: In a typical experiment, two sets of plates containing growth media (Molten Mueller Hilton Agar) and bacterial strains were prepared. One set of plates was taken as control (without ceftazidime) and other set contained ceftazidime. The media was allowed to solidify and wells were punched later. A two-fold serial dilution range of each of the compounds according to invention was prepared and 50 μl of each of the dilution was added into the punched well. […] The Table 5 provides the antibacterial activity of the combination comprising compounds according to invention and ceftazidime.

E. coli NCTC 13353 = assay: as above; assay type: cell-based; conditions: Escherichia coli, NCTC13353, E. coli NCTC 13353, read-out: Diameter of Zone of Inhibition; for zone of inhibition at 0.25 µg/disc: 0.25 μg/well; for zone of inhibition at 0.5 µg/disc: 0.5 μg/well; for zone of inhibition at 1 µg/disc: 1 μg/well
Method: as §4

[4] = Table 2, K. pneumoniae H521 (KPC, SHV, TEM)
[5] = Compound + Ceftazidime (10 μg/ml)

T2 sequence (Q9L4P2 18-273): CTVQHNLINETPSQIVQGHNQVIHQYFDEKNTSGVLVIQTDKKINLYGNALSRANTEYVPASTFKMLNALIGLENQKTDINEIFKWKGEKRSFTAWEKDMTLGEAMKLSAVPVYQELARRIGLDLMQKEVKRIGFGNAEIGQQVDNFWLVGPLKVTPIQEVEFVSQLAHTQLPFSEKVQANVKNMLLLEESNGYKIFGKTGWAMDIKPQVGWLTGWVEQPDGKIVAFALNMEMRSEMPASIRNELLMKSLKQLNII
T1 sequence (P0AD64 22-286 R39S/G234A/E235K): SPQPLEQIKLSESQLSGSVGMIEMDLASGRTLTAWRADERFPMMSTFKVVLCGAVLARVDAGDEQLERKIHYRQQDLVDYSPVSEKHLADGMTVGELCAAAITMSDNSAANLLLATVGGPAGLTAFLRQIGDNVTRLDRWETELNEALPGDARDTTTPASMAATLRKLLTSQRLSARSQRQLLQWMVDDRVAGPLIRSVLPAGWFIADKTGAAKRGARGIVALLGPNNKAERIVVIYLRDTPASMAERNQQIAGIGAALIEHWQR

| SMILES | MIC (E. coli M 49) [µg/mL] | MIC (E. coli 7 MP) [µg/mL] | MIC (C. frundaii 58 MP) [µg/mL] | MIC (P. aeruginosa ATCC 27853) [µg/mL] | MIC (K. pneumoniae B 88) [µg/mL] | MIC (P. aeruginosa R 20) [µg/mL] | MIC (E. coli NCTC 13351) [µg/mL] | MIC (K. pneumoniae S 21) [µg/mL] | MIC (P. aeruginosa 2779) [µg/mL] | MIC (P. aeruginosa PAO1) [µg/mL] | MIC (K. pneumoniae H 525) [µg/mL] | MIC (E. cloacae M 20) [µg/mL] | MIC (E. coli NCTC 13352) [µg/mL] | MIC (E. coli M 50) [µg/mL] | MIC [1, 4] [µg/mL] | MIC ([1]; Table 3, K. pneumoniae H 521) [µg/mL] | IC50 [2] [nM] | IC50 [3] [nM] | zone of inhibition at 0.25 µg/disc (E. coli M50; [5]) [mm] | zone of inhibition at 0.5 µg/disc (E. coli M50; [5]) [mm] | other results |
| --- | --- | --- | --- | --- | --- | --- | --- | --- | --- | --- | --- | --- | --- | --- | --- | --- | --- | --- | --- | --- | --- |
| O=C(Cc1ccc(O)cc1)NNC(=O)[C@@H]1CC[C@@H]2CN1C(=O)N2OS(=O)(=O)[O-].[Na+] [Example 1, Sodium Salt of (2S,5R)-Sulfuric Acid mono-[2-(N′-(4-hydroxyphenyl-acetyl)-hydrazinocarbonyl)-7-oxo-1,6-diaza-bicyclo[3.2.1]oct-6-yl]ester] | 2 | 1 | 32 | > 32 | 0.5 | > 32 | 0.25 | 2 | > 32 | > 32 | 0.5 | 1 | 0.25 | 0.5 | 1 | 1 | 103 | 315 | 16 | 19 | zone of inhibition at 1 µg/disc (E. coli M50; [5]): 22 mm; zone of inhibition at […] (E. coli M50; [5]): 13 mm; zone of inhibition at 0.25 µg/disc (E. coli M50; Compound alone): 12 mm; zone of inhibition at 0.5 µg/disc (E. coli M50; Compound alone): 13.5 mm; zone of inhibition at 1 µg/disc (E. coli M50; Compound alone): 16 mm; zone of inhibition at 0.25 µg/disc (E. coli NCTC 13353; [5]): 18 mm; zone of inhibition at 0.5 µg/disc (E. coli NCTC 13353; [5]): 21 mm; zone of inhibition at 1 µg/disc (E. coli NCTC 13353; [5]): 25 mm; zone of inhibition at […] (E. coli NCTC 13353; [5]): 16 mm; zone of inhibition at 0.25 µg/disc (E. coli NCTC 13353; Compound alone): 14.5 mm; zone of inhibition at 0.5 µg/disc (E. coli NCTC 13353; Compound alone): 15.5 mm; zone of inhibition at 1 µg/disc (E. coli NCTC 13353; Compound alone): 17 mm |
| NCCOc1ccccc1CC(=O)NNC(=O)[C@@H]1CC[C@@H]2CN1C(=O)N2OS(=O)(=O)O [Example 2, (2S,5R)-Sulfuric Acid mono-[2-(N′-{2-[2-(2-amino-ethoxy)-phenyl]-acetyl}-hydrazinocarbonyl)-7-oxo-1,6-diaza-bicyclo[3.2.1]oct-6-yl]ester] | 2 (≈ 4.37 µM) | 2 (≈ 4.37 µM) | 16 (≈ 35 µM) | > 32 | > 32 | > 32 | 1 (≈ 2.19 µM) | 2 (≈ 4.37 µM) | > 32 | > 32 | 1 (≈ 2.19 µM) | 2 (≈ 4.37 µM) | 1 (≈ 2.19 µM) | 1 (≈ 2.19 µM) | 1 (≈ 2.19 µM) | 2 (≈ 4.37 µM) | 119 | 3770 | 13 | 16.5 | zone of inhibition at 1 µg/disc (E. coli M50; [5]): 18.5 mm; zone of inhibition at […] (E. coli M50; [5]): 10 mm; zone of inhibition at 0.25 µg/disc (E. coli M50; Compound alone): 10 mm; zone of inhibition at 0.5 µg/disc (E. coli M50; Compound alone): 14 mm; zone of inhibition at 1 µg/disc (E. coli M50; Compound alone): 16 mm; zone of inhibition at 0.25 µg/disc (E. coli NCTC 13353; [5]): 21 mm; zone of inhibition at 0.5 µg/disc (E. coli NCTC 13353; [5]): 24 mm; zone of inhibition at 1 µg/disc (E. coli NCTC 13353; [5]): 28 mm; zone of inhibition at […] (E. coli NCTC 13353; [5]): 17 mm; zone of inhibition at 0.25 µg/disc (E. coli NCTC 13353; Compound alone): 11 mm; zone of inhibition at 0.5 µg/disc (E. coli NCTC 13353; Compound alone): 14 mm; zone of inhibition at 1 µg/disc (E. coli NCTC 13353; Compound alone): 16 mm |
